Laboratory results from US20110160303A1, “N-ALKYLCARBONYL-AMINO ACID ESTER AND N-ALKYLCARBONYL-AMINO LACTONE COMPOUNDS AND THEIR USE” (Edward Tak WEI, priority 2005, published 2011).

How the values were obtained:
face = experiment: Study 3: towelette used to wipe the face; format: in vivo, human
Procedure: 2-Isopropyl-5-methyl-cyclohexanecarbonyl D-alanine methyl ester was dissolved in warm 10% propylene-glycol/90% distilled water solution to give a concentration of either 0.1 or 0.5% wt/vol (1 or 5 mg/mL). Six to seven milliliters of these solutions were then applied with a pipette onto a paper napkin (Luncheon Napkins, Kirkland Signature brand from Costco, Inc.) The napkin was 1-ply with a 30.4×29.5 cm dimension. Each napkin was then hermetically sealed in a plastic envelope (Foodsaver by Tilia). On two separate occasions involving golfing trips to Los Angeles, Calif., USA, where air temperatures exceeded […] (90° F.), these towelettes were used to wipe the face. Pleasant cooling sensations were obtained that lasted for about 10 minute for the 0.1% concentration towelette and about 60 minutes for the 0.5% towelette.

periorbital area = experiment: Study 4: 1% ointment applied bilaterally to the periorbital area; format: in vivo, human; settings: for irritation of skin and eye surfaces: periorbital application
Source text: A 1% preparation of 2-isopropyl-5-methyl-cyclohexanecarbonyl D-alanine methyl ester in Aquaphor® ointment was applied bilaterally to the periorbital area of four individuals. […] This alerting effect lasted for about one hour. This experiment was then repeated three days later in the evening with the same individuals whose occupations required daylong activities before a computer screen. Again, application of the ointment about the periorbital area was reported to relieve fatigue, enhance visual acuity, and to increase attention span and focus. Sensations of refreshment and improved mood were also noted.

oral cavity = experiment: Oral cavity test, substance placed on dorsal surface of the tongue; format: in vivo, human; settings: for sensory irritation in the mouth: Study 7, same test conditions
Procedure: The subject is instructed to close and hold the substance in the mouth for at least 10 seconds and not to swallow. The description of sensations is then recorded at 5 minute intervals.
The compounds of Formula (1) and (2) are white crystalline solids at room temperatures. These compounds were tested as such, or mixed 1:1 with powdered or granulated sugar. The test substances were applied at 1 to 5 mg on the mid-point of the dorsal surface of the tongue using a metal spatula or a plastic applicator. After depositing the test substance on the tongue, the subject was instructed to keep the mouth closed and allow the fluids of the mouth to inter-mix with the test substance and to distribute it to the back of the mouth (oropharynx). The presence and duration of subjective sensations from the mouth was then noted.
In normal subjects, the effects of the D-Ala methyl and ethyl ester compounds falling within Formula (1) ((R)-2-[((1R,2S,5R)-2-isopropyl-5-methyl-cyclohexanecarbonyl)-amino]-propionic acid methyl or ethyl ester)) were examined. Three doses of 1, 2 and 4 mg per application were examined and compared to a similar dose of the L-Ala methyl or ester analog ((S)-2-[((1R,2S,5R)-2-isopropyl-5-methyl-cyclohexanecarbonyl)-amino]-propionic acid methyl or ethyl ester). At the 2 or 4 mg dose, all compounds produced pleasant and robust cooling sensations on the tongue, extending down to the back of throat, and lasted for about 30 minutes and longer. The onset effect was usually within 30 seconds of application.

skin above the upper lip = experiment: Cooling sensation on facial skin, ointment applied to skin above the upper lip; format: in vivo, human; design: key to refreshing cooling and absence of skin irritation or eye irritation (“perfect cool”): (*) denotes compounds with refreshing cooling and absence of skin irritation or eye irritation after facial skin or periorbital applications; a “perfect cool.”; settings: for Duration of Skin Cooling: 40 mM (1% wt/vol) ointment; for Duration of Skin Cooling / Duration of Action On-Off (minutes): On (onset) / Duration of Action On-Off (minutes): duration (offset minus onset) / Duration of Action On-Off (minutes): Off (offset): skin above upper lip; for Duration of Action On-Off (minutes): On (onset): 40 mM (~1% wt/vol) Aquaphor ointment, 40 to 70 mg, time to reach 2 units of coolness; for Duration of Action On-Off (minutes): duration (offset minus onset) / Duration of Action On-Off (minutes): Off (offset): 40 mM Aquaphor ointment; for Duration of Action On-Off (minutes): Off (offset): time when coolness drops below 2 units; for refreshing cooling and absence of skin irritation or eye irritation (“perfect cool”): after facial skin or periorbital applications
Source text: A reliable place for topical application is the skin above the upper lip (above the vermilion border of the lips), on the philtrum, lateral to the philtrum until the nasolabial folds, and on the lower nostrils (subnasale). This part of the face is known to be densely innervated with cold receptors, second only to the surfaces of the eyeball and anogenitalia. A second location is on or below the malar eminence (cheekbone). The skin above the cheekbone is thicker than above the lips, and therefore has a higher threshold for activation. At both loci, tingling, cool and cold sensations in the skin may be experienced and rated for time of onset and intensity.
The intensity of the subjective skin sensation is rated as 0, 1, 2 or 3 with: 0 as no change; 1 as slight coolness, cold, or tingling; 2 as clear-cut signal of coolness, cold, or tingling; and 3 as robust cooling or cold. The intervals for recording sensations are 5 to 10 minutes, until two successive zeroes are obtained. The results (shown in FIGS. 1 and 2) are averaged values of 4 to 6 separate trials in the same individual. The data are plotted using SigmaPlot® (Systat Software, Point Richmond Calif.) and a smoothing function with a negative exponential was used for analysis and statistical fit of the results. Confirmatory trials of cooling action of the long-acting NACE compounds were obtained in 2 to 4 individuals but not quantified for some because of the large number of chemicals that were evaluated.
(§1) The onset of drug action is taken as the time to reach 2 units of coolness intensity, and offset of drug action is the time when coolness intensity drops below 2, after previously surpassing 2 units. The duration of cooling action is defined as the offset time minus the onset time. […] The quality of the sensation is noted, for example, as pure refreshing coolness, or if the sensation is accompanied by irritation (stinging or burning). The quality of the sensation is not rated for intensity.
For bioassay on the skin, approximately 30 mg was stirred and dissolved in 3 g of warm liquid Aquaphor® ointment to a yield a 40 mM (˜1% wt/vol) ointment. The exact amount was adjusted so that the molar equivalent was about 35 to 40 mM. After cooling, 40 to 70 mg of the solid ointment was placed on the tip of a plastic stick and applied to the skin above the upper lip, on the philtrum, and lateral to the philtrum, up to the nasolabial folds, of test subjects and the onset and duration of cooling sensations noted.
The intensity of the subjective skin sensation was rated as 0, 1, 2 or 3 with: 0 as no change; 1 as slight coolness, cold, or tingling; 2 as clear signal of coolness, cold, or tingling; and 3 as robust cooling or cold. The intervals for recording sensations were 5 to 10 minutes, until two successive zeroes were obtained. The results (shown in FIGS. 1 and 2) are averaged values of 4 to 6 separate trials in the same individual. The data are plotted using SigmaPlot® (Systat Software, Point Richmond, Calif., USA) and a smoothing function with a negative exponential was used for analysis and statistical fit of the results.
as §1, with “was” for “is”, “was also noted: such” for “is noted, for example,”
Test compounds were singly applied to the skin above the upper lips at a 40 to 70 mg dose of a 1% wt/vol ointment.

[1] = tested on: irritated skin (acneiform dermatitis treated with Tazorac); experiment: Study 5: ointment on skin irritated by Tazorac; format: in vivo, human; settings: 1.5% in Aquaphor
Procedure: A person was treated with Tazorac® (tazarotene topical gel) for acneiform dermatitis on their cheeks. After using these medications for several days, they noted redness, itching, and uncomfortable burning sensations on the skin where these medications had been placed. A 1.5% preparation of 2-isopropyl-5-methyl-cyclohexanecarbonyl α-alanine methyl ester in Aquaphor® ointment was then applied to the sites of irritation. Sensations of coolness on the skin were noted within 5 minutes and lasting for an average of 30 minutes. The discomfort of the irritated skin was abated within five minutes and the subject felt better.

tongue = experiment: Threshold for cooling on the tongue; format: in vivo, human; settings: for Threshold tongue: threshold for cooling on the tongue
Procedure: Watson et al. (U.S. Pat. No. 4,178,459) tested the properties of N-substituted p-menthane carboxamides on volunteers by putting filter paper (1×1 cm), impregnated with a known amount of compound, onto the dorsal surface of the tongue of the test subject. After 30 seconds, the subject was required to report presence or absence of a cooling effect. […] The average threshold of (−)-menthol for 6 subjects was 0.25 μg, but there was a 100-fold variation in individual sensitivity. As noted above, coolness signals detected from the dorsal surface of the tongue may be confounded by gustatory, olfactory, and other variables, as well as by dilution from saliva. The octanol/water partition coefficients (given in log P units) for a number of compounds were determined and are shown in Table 7, together with the threshold for cooling on the tongue tested at 40 mM. […] A longer duration of action was not precisely matched with log P values.

[2] = Octanol/water partition coefficient; format: physicochemical
Procedure: The octanol/water partition coefficients (given in log P units) for a number of compounds were determined and are shown in Table 7, together with the threshold for cooling on the tongue tested at 40 mM. […] A longer duration of action was not precisely matched with log P values.

[3] = 1% in Aquaphor, periorbital, four individuals

| Log P [2] | SMILES | irritation of skin and eye surfaces (periorbital area) | Duration of Skin Cooling (skin above the upper lip) [h] | Duration of Action On-Off (minutes): On (onset) (skin above the upper lip) [min] | Duration of Action On-Off (minutes): duration (offset minus onset) (skin above the upper lip) [min] | Duration of Action On-Off (minutes): Off (offset) (skin above the upper lip) [min] | refreshing cooling and absence of skin irritation or eye irritation (“perfect cool”) (skin above the upper lip) | Threshold tongue (tongue) [µg] | other results |
| --- | --- | --- | --- | --- | --- | --- | --- | --- | --- |
| – | COC(=O)[C@@H](C)NC(=O)[C@@H]1C[C@H](C)CC[C@H]1C(C)C [D-Ala Me Ester, (R)-2-[((1R,2S,5R)-2-isopropyl-5-methyl-cyclohexanecarbonyl)-amino]-propionic acid methyl ester] | No irritation of the eye surfaces | 1.9 | 1 | 114 | 115 | D-Ala Me Ester (*) | – | duration of pleasant cooling sensations, 0.1% towelette (face; 0.1% wt/vol in 10% propylene-glycol/90% water on napkin, face): about 10 minute; eye irritation (face; 0.1 or 0.5% towelette): No eye irritation; duration of pleasant cooling sensations, 0.5% towelette (face; 0.5% wt/vol in 10% propylene-glycol/90% water on napkin, face): about 60 minutes; duration of alerting effect (periorbital area; 1% in Aquaphor, periorbital): about one; duration of coolness on the skin (average) (periorbital area; [3]): 30 min; onset of coolness on the skin (periorbital area; [3]): ≤ 1 min; duration of cooling sensations on the tongue (oral cavity; dose of 1 to 2 mg, normal subjects): about 30 minutes; duration of coolness on irritated skin (average) [1]: 30 min; time until discomfort of the irritated skin was abated [1]: five; onset of sensations of coolness on irritated skin ([1]; one subject): ≤ 5 min |
| – | CCOC(=O)CNC(=O)[C@@H]1C[C@H](C)CC[C@H]1C(C)C [Gly Et Ester (WS-5), N-p-menthanecarbonyl glycine ethyl ester, reference compound] | – | 0.5 | 4 | 33 | 37 | Gly Et Ester (WS-5) (*) | 0.2 | sensory irritation in the mouth (oral cavity): some sensory irritation; logP [2]: 2.9 |
| 2.9 | CCOC(=O)CN(C)C(=O)C1CC(C)CCC1C(C)C (stereo not drawn) [Sar Et Ester] | – | 1.0 | 2 | 63 | 65 | Sar Et Ester (*) | 0.8 | sensory irritation in the mouth (oral cavity): some sensory irritation; duration of action relative to WS-11 (skin above the upper lip; in vivo): five; times less potent than WS-11 on the tongue threshold test (tongue; in vivo): 2.7 times |
| 3.7 | CCNC(=O)C1CC(C)CCC1C(C)C (stereo not drawn) [WS-3, reference compound] | significant skin and eye irritation | – | 5 | – | 23 | – | 0.2 | – |
| 2.9 | CC1CCC(C(C)C)C(C(=O)NC(C)(C)CO)C1 (stereo not drawn) [WS-11, reference compound] | significant skin and eye irritation | 0.2 | 8 | 10 | 18 | – | 0.3 | – |
| 4.5 | CC1CCC(C(C)C)C(C(=O)NC(C)(C)C)C1 (stereo not drawn) [WS-14, reference compound] | significant skin and eye irritation | 0.1 | 15 | 8 | 23 | – | 0.4 | – |
| – | CNC(=O)C(C)(C(C)C)C(C)C [WS-23, N-2,3-trimethyl-2-isopropylbutanamide, reference compound] | significant skin and eye irritation | – | – | – | – | – | – | – |
